Calls of active or inactive are those of the source.
Assays:
[1] = molecular target: T1, 5'-AMP-activated protein kinase (Mus musculus) (UniProt Q5EG47+Q8BRK8+Q6PAM0+O54950+Q91WG5+Q9R078+Q8BGM7); experiment: Activation of AMPK phosphorylation at […] residue in mouse 3T3L1 adipocytes in DMI differentiation media after 4 to 8 days by Western blot analysis; assay type: cell-based; details: 3T3-L1
[2] = molecular target: T1, 5'-AMP-activated protein kinase (Mus musculus); experiment: Activation of AMPK in mouse 3T3L1 adipocytes in DMI differentiation media assessed as decrease in FAS expression after 4 to 8 days by Western blot analysis; assay type: cell-based; details: 3T3-L1
[3] = molecular target: T1, 5'-AMP-activated protein kinase (Mus musculus); experiment: Activation of AMPK in mouse 3T3L1 adipocytes in DMI differentiation media assessed as decrease in PPARgamma mRNA expression after 4 days by RP-PCR analysis; assay type: cell-based; details: 3T3-L1
[4] = molecular target: T1, 5'-AMP-activated protein kinase (Mus musculus); experiment: Activation of AMPK in mouse 3T3L1 adipocytes in DMI differentiation media assessed as decrease in C/EBPbeta mRNA expression after 4 days by RP-PCR analysis; assay type: cell-based; details: 3T3-L1
[5] = system: 3T3-L1; experiment: Anti-adipogenic activity in mouse 3T3L1 adipocytes assessed as inhibition of insulin/dexamethasone/isobutylmethylxanthine induced-triglyceride accumulation at 1.5 ug/ml treated every 2 days following compound washout for 8 days by ELISA relative to control; assay type: functional
[6] = system: 3T3-L1; experiment: Anti-adipogenic activity in mouse 3T3L1 preadipocytes assessed as inhibition of insulin/dexamethasone/isobutylmethylxanthine induced-lipid accumulation treated every 2 days following compound washout for 8 days by Oil-red O staining based assay; assay type: functional, cell-based
[7] = system: 3T3-L1; experiment: Anti-adipogenic activity in mouse 3T3L1 adipocytes assessed as inhibition of insulin/dexamethasone/isobutylmethylxanthine induced-triglyceride accumulation at 0.4 ug/ml treated every 2 days following compound washout for 8 days by ELISA relative to control; assay type: functional
[8] = molecular target: T1, 5'-AMP-activated protein kinase (Mus musculus); experiment: Activation of AMPK in mouse 3T3L1 adipocytes in DMI differentiation media assessed as increase in ACC phosphorylation after 4 to 8 days by Western blot analysis; assay type: cell-based; details: 3T3-L1
[9] = molecular target: T1, 5'-AMP-activated protein kinase (Mus musculus); experiment: Activation of AMPK in mouse 3T3L1 adipocytes in DMI differentiation media assessed as decrease in LPL expression after 4 to 8 days by Western blot analysis; assay type: cell-based; details: 3T3-L1
[10] = molecular target: AMP-activated protein kinase, AMPK (Homo sapiens) (UniProt P54646+O43741+P54619+Q9UGJ0+Q9Y478+Q13131+Q9UGI9); experiment: Activation of AMPK (unknown origin) at 0.4 to 1.5 ug/ml; assay type: protein-complex assay
[11] = molecular target: T1, 5'-AMP-activated protein kinase (Mus musculus); experiment: Activation of AMPK in mouse 3T3L1 adipocytes in DMI differentiation media assessed as decrease in C/EBPalpha expression after 4 to 8 days by Western blot analysis; assay type: cell-based; details: 3T3-L1
[12] = system: 3T3-L1; experiment: Induction of morphological changes in mouse 3T3L1 cells; assay type: cell-based
[13] = system: 3T3-L1; experiment: Anti-adipogenic activity in mouse 3T3L1 preadipocytes assessed as inhibition of insulin/dexamethasone/isobutylmethylxanthine induced-cell differentiation treated every 2 days following compound washout for 8 days by Oil-red O staining based assay; assay type: functional
[14] = molecular target: T1, 5'-AMP-activated protein kinase (Mus musculus); experiment: Activation of AMPK in mouse 3T3L1 adipocytes in DMI differentiation media at 0.4 to 1.5 ug/ml after 8 days by Western blot analysis; assay type: cell-based; details: 3T3-L1
[15] = molecular target: T1, 5'-AMP-activated protein kinase (Mus musculus); experiment: Activation of AMPK in mouse 3T3L1 adipocytes in DMI differentiation media assessed as decrease in aP2 expression after 4 to 8 days by Western blot analysis; assay type: cell-based; details: 3T3-L1
[16] = molecular target: T1, 5'-AMP-activated protein kinase (Mus musculus); experiment: Activation of AMPK in mouse 3T3L1 adipocytes in DMI differentiation media assessed as decrease in C/EBPbeta expression at 1.5 ug/ml after 24 hrs in presence of AMPK inhibitor compound C by Western blot analysis; assay type: cell-based; details: 3T3-L1
[17] = molecular target: T1, 5'-AMP-activated protein kinase (Mus musculus); experiment: Activation of AMPK in mouse 3T3L1 adipocytes in DMI differentiation media assessed as decrease in C/EBPalpha expression at 1.5 ug/ml after 6 days in presence of AMPK inhibitor compound C by Western blot analysis; assay type: cell-based; details: 3T3-L1
[18] = molecular target: T1, 5'-AMP-activated protein kinase (Mus musculus); experiment: Activation of AMPK in mouse 3T3L1 adipocytes in DMI differentiation media assessed as decrease in PPARgamma expression after 4 to 8 days by Western blot analysis; assay type: cell-based; details: 3T3-L1
[19] = molecular target: T1, 5'-AMP-activated protein kinase (Mus musculus); experiment: Activation of AMPK in mouse 3T3L1 adipocytes in DMI differentiation media assessed as decrease in PPARgamma expression at 1.5 ug/ml after 6 days in presence of AMPK inhibitor compound C by Western blot analysis; assay type: cell-based; details: 3T3-L1
[20] = system: 3T3-L1; experiment: Cytotoxicity against mouse 3T3L1 cells assessed as effect on cell viability up to 1.5 ug/ml after 4 to 8 days by MTT assay; assay type: cell-based
[21] = molecular target: T1, 5'-AMP-activated protein kinase (Mus musculus); experiment: Activation of AMPK in mouse 3T3L1 adipocytes in DMI differentiation media at 1.5 ug/ml after 24 hrs in presence of AMPK inhibitor compound C by Western blot analysis; assay type: cell-based; details: 3T3-L1
[22] = molecular target: T1, 5'-AMP-activated protein kinase (Mus musculus); experiment: Activation of AMPK in mouse 3T3L1 adipocytes in DMI differentiation media assessed as decrease in C/EBPalpha mRNA expression after 4 days by RP-PCR analysis; assay type: cell-based; details: 3T3-L1
[23] = molecular target: T1, 5'-AMP-activated protein kinase (Mus musculus); experiment: Activation of AMPK in mouse 3T3L1 adipocytes in DMI differentiation media assessed as decrease in C/EBPbeta expression after 4 to 8 days by Western blot analysis; assay type: cell-based; details: 3T3-L1
[24] = molecular target: T1, 5'-AMP-activated protein kinase (Mus musculus); experiment: Activation of AMPK phosphorylation at […] residue in mouse 3T3L1 adipocytes in DMI differentiation media in presence of AMPK inhibitor compound C by Western blot analysis; assay type: cell-based; details: 3T3-L1
[25] = molecular target: T1, 5'-AMP-activated protein kinase (Mus musculus); experiment: Activation of AMPK in mouse 3T3L1 adipocytes in DMI differentiation media assessed as increase in ACC phosphorylation in presence of AMPK inhibitor compound C by Western blot analysis; assay type: cell-based; details: 3T3-L1
[26] = system: 3T3-L1; experiment: Effect on total AMPK expression in mouse 3T3L1 adipocytes in DMI differentiation media at 0.4 to 1.5 ug/ml after 4 to 8 days by Western blot analysis; assay type: ADME, cell-based

C=C(C)[C@H]1Cc2c(ccc3c2O[C@@H]2COc4cc(OC)c(OC)cc4[C@@H]2[C@@]32CO2)O1 [ROTENOISIN A]
57%: inhibition at 1.5 µg/mL [5]
23%: inhibition at 0.4 µg/mL [7]
active: Activity [1] Dose-dependent effect | Activity [2] Dose-dependent effect | Activity [3] Dose-dependent effect | Activity [4] Dose-dependent effect | inhibition [6] Dose-dependent effect | Activity [8] Dose-dependent effect | Activity [9] Dose-dependent effect | Activity [11] Dose-dependent effect | inhibition [13] Dose-dependent effect | Activity [14] | Activity [15] Dose-dependent effect | Activity [18] Dose-dependent effect | Activity [22] Dose-dependent effect | Activity [23] Dose-dependent effect
inactive: Activity [10] | Activity [16] | Activity [17] | Activity [19] | Activity [21] | Activity [24] | Activity [25]
Non-Toxic: Activity [12] | Activity [20] | Activity [26]

— ChEMBL document CHEMBL4308866, “Rotenoisin A is a novel anti-adipogenic compound” (Bioorg Med Chem Lett, 2019)
